Patent US11207277B2, “Methods of treating diseases associated with high-fat diet and vitamin a deficiency using retinoic acid receptor agonists” (Cornell University, priority 2013, dated 2021)
“Also recorded” adds a separate entry of the source.

How the values were obtained:
[1] = tested on: 4-hydroxynonenal (4-HNE); experiment: 4-HNE staining of kidney sections; assay type: in vivo, mice; conditions: HF diet + AC261066 vs HF diet group
Description: (§1) WT male C57/BL6 male mice were maintained on either a standard laboratory chow-fed diet (CFD) with 13% kcal fat, (diet #5053, Lab Diet, Inc, St. Louis, Mo.) or a high fat, western style diet (HFD) with 60% kcals from fat, (diet #58126, Lab Diet, Inc., St. Louis, Mo.) for 4 months. One month after the start of the high fat diet treatment, the high fat diet group was further split into 2 groups for 3 months: i) high fat diet and the drinking water containing 1% DMSO; ii) high fat diet and the drinking water containing 1.5 mg/100 ml AC261066, a specific RARβ agonist. Then mice were sacrificed by cervical dislocation. Blood and various tissue samples were harvested.
(§2) Paraffin-embedded sections (from two to four mice per group) were deparaffinized and rehydrated, and antigen retrieval was performed using an antigen unmasking solution (Vector Laboratories, H-3300). After quenching endogenous peroxidase with 3% H2O2, the tissue sections were blocked with the blocking reagent (from the M.O.M. kit from Vector Laboratories). Then, tissue sections were incubated with a 4-HNE antibody (1:400; mouse monoclonal antibody; Abcam, ab48506) overnight at 4° C. The sections were then incubated with secondary antibodies (1:200, anti-mouse IgG from the M.O.M kit). As a negative control, sections were stained without incubation with primary antibodies. […]

[2] = tested on: LRAT; experiment: Semi-quantitative PCR kidney, LRAT; assay type: in vivo; conditions: HF diet mice + AC261066
Description: as §1
(§3) Total RNA was extracted from mouse tissues using TRIzol reagent (Life technologies) and (1 μg) was used to synthesize cDNA. cDNA synthesis was performed at 42° C. for 1 h in a final volume of 20 μl using qScript (Quanta, MD). Semi-quantitative PCR were performed Taq DNA polymerase (Invitrogen. CA). Three step PCR was run as follows: 94° C. for 30 s, 58-64° C. for 45 s for primer annealing and 72° C. for 1 min for primer extension. The number of cycles for each primer pair for amplification in the linear range was determined experimentally. PCR products were resolved on 2% agarose gels and visualized by staining with ehtidium bromide. Primers for gene expression used were as follows: […]

[3] = tested on: hepatocyte lipid accumulation; experiment: Hematoxylin and eosin staining of liver sections (hepatic steatosis); assay type: in vivo; conditions: HF diet mice 4 months + AC261066 or CD1530; vs HF-vehicle
Description: as §1
At sacrifice, fresh mouse liver samples were fixed in 4% formaldehyde solution for 24 hr and embedded in paraffin blocks. Liver paraffin sections were cut 5 microns thick and mounted on glass slides and stained with hematoxylin and eosin (H and E) using standard protocols.

[4] = tested on: RARβ2; experiment: Semi-quantitative PCR kidney, RARβ2; assay type: in vivo; conditions: HF diet mice + AC261066
Description: as §1, §3

[5] = tested on: retinyl palmitate and retinol; experiment: HPLC analysis of liver retinoids; assay type: in vivo, mice
Description: as §1
The frozen liver tissue samples (˜100 mg) were homogenized in 500 μl cold phosphate-buffered saline (PBS). In addition, 100 μl serum was diluted in cold PBS to total volume of 500 μl. Retinyl acetate was added to each sample before the retinoid extraction for the calculation of extraction efficiency. The retinoids were extracted into 350 μl of organic solution (acetonitrile/butanol, 50:50, v/v) in the dark. The high performance liquid chromatography (HPLC) was performed using a Waters Millennium system (Waters). Each sample (100 μl of the 350 μl) was loaded onto an analytical 5-μm reverse phase C18 column (Vydac, Hesperia, Calif.) and eluted at a flow rate of 1.5 ml/min. Two mobile phase gradient systems were used. Retinoids were identified by HPLC based on two criteria: an exact match of the retention times of unknown peaks with those of authentic retinoid standards and identical UV light spectra (220-400 nm) of unknowns against spectra from authentic retinoid standards during HPLC by the use of a photodiode array detector. The amounts of retinoids were calculated from the areas under the peaks detected at the wave-length of 325 nm. The levels of retinol and retinyl esters were normalized to the tissue weight.

[6] = tested on: hepatic lipids; experiment: Oil red O staining of liver sections; assay type: in vivo; conditions: HF diet mice + AC261066 or CD1530; vs HF-vehicle
Description: as §1
Staining. Fresh mouse liver samples were embedded in optimal cutting temperature (OCT) medium and immediately frozen to −70 centigrade. Cryosections were then fixed in 4% formaldehyde for 1 hr at room temp. Slides were then rinsed three times in deionized water (dH2O) for 30 s, followed by treatment with 0.5% Triton X-100 in PBS for 5 min. Sections were then washed three times with PBS for 5 min. Samples were with incubated 2% bovine serum albumin (BSA) for 30 min at room temperature to block for unspecific antibody binding. Following blocking, sections were washed three times in PBS and incubated with mouse monoclonal antibody against α-SMA (1:500) (Dako, Inc) for 24 h at 4° C. […]

[7] = tested on: MCP-1; experiment: Semi-quantitative PCR liver, MCP-1; assay type: in vivo; conditions: HF diet mice + AC261066 or CD1530
Description: as §1
as §3, with “(Invitrogen,” for “(Invitrogen.”, “resolved” for “resolved on”

[8] = tested on: 4-hydroxynonenal (4-HNE); experiment: 4-HNE staining of liver sections; assay type: in vivo, mice; conditions: HF diet + AC261066 vs HF diet group
Description: as §1, §2

[9] = HF diet mice + AC261066 or CD1530 vs controls

`CCCCOCCOc1nc(-c2ccc(C(=O)O)c(F)c2)sc1C` [AC261066] was tested, and the “4-HNE levels (oxidative stress) in kidneys” value [1] was “reduces oxidative stress (ROS); also recorded: lower 4-HNE levels than those from the high fat diet group”, the “LRAT mRNA levels in kidney” value [2] was “restores RAR beta and LRAT mRNA levels” and the “hepatocyte lipid infiltration / hepatic steatosis (H and E)” value [3] was “diminished hepatic steatosis; also recorded: prevent hepatic steatosis; also recorded: marked decreased hepatocyte lipid infiltration”. For the same compound, the “RARβ2 mRNA levels in kidney” value [4] was “restores RAR beta and LRAT mRNA levels; also recorded: did not have decreased RARβ2 mRNA levels”, the “higher levels of retinyl palmitate in the livers compared to HF-vehicle treated mice” value ([5]; HF diet mice + AC261066) was 55% and the “liver retinol compared to controls” value [5, 9] was “significantly lowered”. The “liver retinyl palmitate compared to controls” value [5, 9] was “significantly lowered”, the “vitamin A deficiency in liver caused by high fat diet” value ([5]; HFD+AC261066) was “partially reversed” and the “hepatic lipid accumulation (oil red O)” value [6] was “marked diminished hepatic lipid accumulation”. For the same compound, the “mRNA levels of MCP-1 in liver” value [7] was “decreases levels of inflammatory proteins MCP-1 and TNF alpha” and the “4-HNE levels (oxidative stress) in liver” value [8] was “reduces oxidative stress and ROS; also recorded: lower 4-HNE levels than those from the high fat diet group”.
